# Measured values taken from patent publication US10689344B2, “Biphenylamide derivative Hsp90 inhibitors” (University of Kansas, priority 2013, dated 2020).
# How the values were obtained:
# Type in all cases: cell-based
# [1] = tested on: Hsp90-dependent client proteins (Her2, Raf, Akt) in MCF-7 cells; test: Western blot analyses of Hsp90-dependent client proteins from MCF-7 cell lysate
# Experimental: (§1) FIG. 1—Western blot analyses of Hsp90-dependent client proteins from MCF-7 breast cancer cell lysate upon treatment with biphenyl derivatives. H represents a concentration equal to 5-fold of the anti-proliferative activity. L represents a concentration ½ of the anti-proliferative activity. Geldanamycin (G, 0.5 μM) and dimethylsulfoxide (D, 100%) were employed as positive and negative controls.
# as §1, with “FIGS. 2A & 2B—Western” for “FIG. 1—Western”, “derivatives. Concentrations (in μM) were indicated above each line.” for “derivatives.”, “equal to 0.5-fold” for “½”, “(GDA,” for “(G,”, “(DMSO,” for “(D,”
# FIG. 3—Western blot analyses of Hsp90-dependent client proteins from MCF-7 breast cancer cell lysate upon treatment with compound 6l. Concentrations (in μM) were indicated above each line, and geldanamycin (GDA, 0.5 μM) and dimethylsulfoxide (DMSO) were employed as positive and negative controls.
# MCF-7 cells were cultured as described above and treated with various concentrations of drug, GDA in DMSO (1% DMSO final concentration), or vehicle (DMSO) for 24 h. Cells were harvested in cold PBS and lysed in RIPA lysis buffer containing 1 mM PMSF, 2 mM sodium orthovanadate, and protease inhibitors on ice for 1 h. Lysates were clarified at 14000 g for 10 min at 4° C. Protein concentrations were determined using the Pierce BCA protein assay kit per the manufacturer's instructions. Equal amounts of protein (20 μg) were electrophoresed under reducing conditions, transferred to a nitrocellulose membrane, and immunoblotted with the corresponding specific antibodies. Membranes were incubated with an appropriate horseradish peroxidase-labeled secondary antibody, developed with a chemiluminescent substrate, and visualized.
# [2] = tested on: MCF-7 (estrogen receptor positive breast cancer cells); test: Anti-proliferation assay (MTS/PMS, 72 h), MCF-7; conditions: Homo sapiens
# Procedure, shortened: (§2)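 Cells seeded at 2000/well, attached overnight, then exposed to compound at varying concentrations (1% DMSO final) for 72 h at 37° C, 5% CO2. Viability by MTS/PMS, normalised to 1% DMSO controls as 100% proliferation; IC50 from separate triplicate experiments.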
# [3] = tested on: SKBr3 (estrogen receptor negative, HER2 over-expressing breast cancer cells); test: Anti-proliferation assay (MTS/PMS, 72 h), SKBr3; conditions: Homo sapiens
# Procedure, shortened: as §2
# [4] = MCF7, Table 9, para-meta biphenyl core with prenylated benzylamide
# [5] = SK-BR-3, Table 9, para-meta biphenyl core with prenylated benzylamide
# [6] = MCF7, Table 1, ortho, meta and para biphenyl cores
# [7] = SK-BR-3, Table 1, ortho, meta and para biphenyl cores
# [8] = MCF7, Table 8, para-para biphenyl core with substituted biphenylamide group
# [9] = SK-BR-3, Table 8, para-para biphenyl core with substituted biphenylamide group
# [10] = MCF7, Table 5, modified linkers in para-para biphenyl core
# [11] = SK-BR-3, Table 5, modified linkers in para-para biphenyl core
# [12] = MCF7, Table 7, para-para biphenyl core with modified ether groups
# [13] = SK-BR-3, Table 7, para-para biphenyl core with modified ether groups
structure (smiles),measurement,setting,value
CC(C)=CCc1cc(C(=O)Nc2cccc(-c3ccc(OC4CCN(C)CC4)cc3)c2)ccc1O [Compound 3a],"Her2, Raf-1 and p-Akt (western blot, concentration-dependent analysis)","[1]; MCF-7 cell lysates, FIG. 2B","degradation of Her2, Raf-1 and p-Akt"
same,IC50,[2]; [4],2210 ± 60 nM
same,IC50,[3]; [5],2940 ± 110 nM
"COc1cccc(-c2cc(C(=O)Nc3cccc(-c4ccc(OC5CCN(C)CC5)cc4)c3)ccc2OC)c1 [Compound 6a, 3′,6-dimethoxy-N-(4′-((1-methylpiperidin-4-yl)oxy)-[1,1′-biphenyl]-3-yl)-[1,1′-biphenyl]-3-carboxamide]",Hsp90 client proteins Her2 and Raf-1 (western blot),"[1]; MCF-7 cell lysates, FIG. 2A, concentrations that mirror anti-proliferative IC50 values",degraded
same,non-Hsp90-dependent protein actin (western blot),"[1]; MCF-7 cells, FIG. 1",not affected
same,Hsp90 levels (western blot),"[1]; MCF-7 cells, FIG. 1, all concentrations tested",remained constant
same,"Hsp90-dependent client proteins Her2, Raf, and Akt (western blot)","[1]; MCF-7 cells, FIG. 1, at the same concentration needed to manifest anti-proliferative activity (H 5-fold, L 1/2)",degradation in a concentration-dependent manner
same,IC50,[2]; [6],1250 ± 20 nM
same,IC50,[2]; [4],2710 ± 400 nM
same,IC50,[3]; [7],3650 ± 140 nM
same,IC50,[3]; [5],3470 ± 470 nM
"COc1ccc(C(=O)Nc2ccc(-c3ccc(OC4CCN(C)CC4)cc3)cc2)cc1-c1cccc([N+](=O)[O-])c1 [Compound 49h, 6-methoxy-N-(4′-((1-methylpiperidin-4-yl)oxy)-[1,1′-biphenyl]-4-yl)-3′-nitro-[1,1′-biphenyl]-3-carboxamide]",IC50,[2]; [8],1090 ± 280 nM
same,IC50,[3]; [9],400 ± 70 nM
COc1cccc(-c2cc(C(=O)Nc3ccc(-c4ccc(OC5CCN(C)CC5)cc4)cc3)ccc2O)c1 [Compound 49j],IC50,[2]; [8],2710 ± 450 nM
same,IC50,[3]; [9],2780 ± 350 nM
Cc1ccc(C(=O)Nc2ccc(-c3ccc(OC4CCN(C)CC4)cc3)cc2)cc1-c1cccc(Cl)c1 [Compound 49k],IC50,[2]; [8],1600 ± 110 nM
same,IC50,[3]; [9],3160 ± 370 nM
"COc1ccc(C(=O)Nc2ccc(-c3ccc(OC4CCN(C)CC4)cc3)cc2)cc1-c1cccc(O)c1 [Compound 50a, 3′-hydroxy-6-methoxy-N-(4′-((1-methylpiperidin-4-yl)oxy)-[1,1′-biphenyl]-4-yl)-[1,1′-biphenyl]-3-carboxamide]",IC50,[2]; [8],1080 ± 340 nM
same,IC50,[3]; [9],1560 ± 350 nM
"COc1ccc(C(=O)Nc2ccc(-c3ccc(OC4CCN(C)CC4)cc3)cc2)cc1-c1ccc(O)cc1 [Compound 50b, 4′-hydroxy-6-methoxy-N-(4′-((1-methylpiperidin-4-yl)oxy)-[1,1′-biphenyl]-4-yl)-[1,1′-biphenyl]-3-carboxamide]",IC50,[2]; [8],500 ± 10 nM
same,IC50,[3]; [9],130 ± 20 nM
"COc1ccc(C(=O)Nc2ccc(-c3ccc(OC4CCN(C)CC4)cc3)cc2)cc1-c1cccc(N)c1 [Compound 50c, 3′-amino-6-methoxy-N-(4′-((1-methylpiperidin-4-yl)oxy)-[1,1′-biphenyl]-4-yl)-[1,1′-biphenyl]-3-carboxamide]",IC50,[2]; [8],1670 ± 680 nM
same,IC50,[3]; [9],1520 ± 550 nM
"COc1ccc(C(=O)Nc2ccc(-c3ccc(OC4CCN(C)CC4)cc3)cc2)cc1-c1cccc(NC(C)=O)c1 [Compound 50d, 3′-acetamido-6-methoxy-N-(4′-((1-methylpiperidin-4-yl)oxy)-[1,1′-biphenyl]-4-yl)-[1,1′-biphenyl]-3-carboxamide]",IC50,[2]; [8],1430 ± 280 nM
same,IC50,[3]; [9],3370 ± 740 nM
"COc1cccc(-c2cc(NC(=O)Nc3ccc(-c4ccc(OC5CCN(C)CC5)cc4)cc3)ccc2OC)c1 [Compound 52, 1-(3′,6-dimethoxy-[1,1′-biphenyl]-3-yl)-3-(4′-((1-methylpiperidin-4-yl)oxy)-[1,1′-biphenyl]-4-yl)urea]",IC50,[2]; [10],1260 ± 130 nM
same,IC50,[3]; [11],910 ± 80 nM
"COc1cccc(-c2cc(C(=O)Nc3ccc(-c4ccc(OCCC5CCCCN5)cc4)cc3)ccc2OC)c1 (stereo not drawn) [Compound 56a, 3′,6-dimethoxy-N-(4′-(2-(piperidin-2-yl)ethoxy)-[1,1′-biphenyl]-4-yl)-[1,1′-biphenyl]-3-carboxamide]",IC50,[2]; [12],950 nM
same,IC50,[3]; [13],850 ± 200 nM
"COc1cccc(-c2cc(C(=O)Nc3ccc(-c4ccc(OC5CC6CCC(C5)N6C)cc4)cc3)ccc2OC)c1 [Compound 56b, 3′,6-dimethoxy-N-(4′-(((1R,3s,5S)-8-methyl-8-azabicyclo[3.2.1]octan-3-yl)oxy)-[1,1′-biphenyl]-4-yl)-[1,1′-biphenyl]-3-carboxamide]",IC50,[2]; [12],1320 ± 230 nM
same,IC50,[3]; [13],1670 ± 600 nM
"COc1cccc(-c2cc(C(=O)Nc3ccc(-c4ccc(OCCCN(C)C)cc4)cc3)ccc2OC)c1 [Compound 56c, N-(4′-(3-(dimethylamino)propoxy)-[1,1′-biphenyl]-4-yl)-3′,6-dimethoxy-[1,1′-biphenyl]-3-carboxamide]",IC50,[2]; [12],870 ± 40 nM
same,IC50,[3]; [13],1020 ± 50 nM
COc1cccc(-c2cc(NC(=O)c3ccc(-c4ccc(OC5CCN(C)CC5)cc4)cc3)ccc2OC)c1 [Compound 60],IC50,[2]; [10],1220 ± 130 nM
same,IC50,[3]; [11],1640 ± 790 nM
"CN1CCC(Oc2ccc(-c3cccc(NC(=O)C45CC6CC(CC(C6)C4)C5)c3)cc2)CC1 [Compound 61a, N-(4′-((1-methylpiperidin-4-yl)oxy)-[1,1′-biphenyl]-3-yl)adamantane-1-carboxamide]",IC50,[2]; [6],770 ± 80 nM
same,IC50,[3]; [7],1250 ± 40 nM
"CN1CCC(Oc2cccc(-c3cccc(NC(=O)C45CC6CC(CC(C6)C4)C5)c3)c2)CC1 [Compound 61b, N-(3′-((1-methylpiperidin-4-yl)oxy)-[1,1′-biphenyl]-3-yl)adamantane-1-carboxamide]",IC50,[2]; [6],2070 ± 90 nM
same,IC50,[3]; [7],2600 ± 710 nM
"CN1CCC(Oc2ccc(-c3ccc(NC(=O)C45CC6CC(CC(C6)C4)C5)cc3)cc2)CC1 [Compound 61c, N-(4′-((1-methylpiperidin-4-yl)oxy)-[1,1′-biphenyl]-4-yl)adamantane-1-carboxamide]",IC50,[2]; [6],2770 ± 230 nM
same,IC50,[3]; [7],2070 ± 350 nM
"COc1cccc(-c2cc(C(=O)Nc3cccc(-c4cccc(OC5CCN(C)CC5)c4)c3)ccc2OC)c1 [Compound 61d, 3′,6-dimethoxy-N-(3′-((1-methylpiperidin-4-yl)oxy)-[1,1′-biphenyl]-3-yl)-[1,1′-biphenyl]-3-carboxamide]",IC50,[2]; [6],2000 ± 70 nM
same,IC50,[3]; [7],1620 ± 70 nM
"CC(=O)Oc1ccc(C(=O)Nc2cccc(-c3ccc(OC4CCN(C)CC4)cc3)c2)cc1CC=C(C)C [Compound 61e, 2-(3-methylbut-2-en-1-yl)-4-((4′-((1-methylpiperidin-4-yl)oxy)-[1,1′-biphenyl]-3-yl)carbamoyl)phenyl acetate]",IC50,[2]; [6],2710 ± 400 nM
same,IC50,[3]; [7],3470 nM
"CC(=O)Oc1ccc(C(=O)Nc2cccc(-c3cccc(OC4CCN(C)CC4)c3)c2)cc1CC=C(C)C [Compound 61f, 2-(3-methylbut-2-en-1-yl)-4-((3′-((1-methylpiperidin-4-yl)oxy)-[1,1′-biphenyl]-3-yl)carbamoyl)phenyl acetate]",IC50,[2]; [6],1700 ± 210 nM
same,IC50,[3]; [7],1760 ± 160 nM
"CN1CCC(Oc2cccc(-c3cccc(NC(=O)c4ccc(Cl)cc4)c3)c2)CC1 [Compound 61g, 4-chloro-N-(3′-((1-methylpiperidin-4-yl)oxy)-[1,1′-biphenyl]-3-yl)benzamide]",IC50,[2]; [6],4890 ± 80 nM
same,IC50,[3]; [7],4150 ± 960 nM
"COc1ccc(C(=O)Nc2cccc(-c3cccc(OC4CCN(C)CC4)c3)c2)cc1 [Compound 61h, 4-methoxy-N-(3′-((1-methylpiperidin-4-yl)oxy)-[1,1′-biphenyl]-3-yl)benzamide]",IC50,[2]; [6],8200 nM
same,IC50,[3]; [7],13200 ± 1970 nM
"CN1CCC(Oc2cccc(-c3cccc(NC(=O)c4ccc(C(C)(C)C)cc4)c3)c2)CC1 [Compound 61i, 4-(tert-butyl)-N-(3′-((1-methylpiperidin-4-yl)oxy)-[1,1′-biphenyl]-3-yl)benzamide]",IC50,[2]; [6],1930 ± 330 nM
same,IC50,[3]; [7],3360 ± 200 nM
"CC(=O)Oc1ccc(C(=O)Nc2ccc(-c3ccc(OC4CCN(C)CC4)cc3)cc2)cc1CC=C(C)C [Compound 61j, 2-(3-methylbut-2-en-1-yl)-4-((4′-((1-methylpiperidin-4-yl)oxy)-[1,1′-biphenyl]-4-yl)carbamoyl)phenyl acetate]",IC50,[2]; [6],1370 ± 180 nM
same,IC50,[3]; [7],1820 ± 210 nM
COc1ccc(C(=O)Nc2ccc(Nc3ccc(OC4CCN(C)CC4)cc3)cc2)cc1 [drawing 159],IC50,"[2]; MCF7, Table 11, heteroatom linked biphenyl core",2830 ± 1870 nM
same,IC50,"[3]; SK-BR-3, Table 11, heteroatom linked biphenyl core",18200 ± 2190 nM
